Measurements published in patent publication US11549017B2, “NIR to SWIR fluorescent compounds for imaging and detection” (PERKINELMER HEALTH SCIENCES, INC., priority 2017, dated 2023).
“And” between values parts separate entries of the source, which are not always exact repeats. Identical values can stand only once. Values belong to the compound of their own block, whether it stands above or below them.

Assays:
Format in all cases: physicochemical
[1] = Absorbance spectra / absorbance maximum in solvents (UV/vis spectrophotometer)
From the text: Normalized spectra thus obtained are shown in FIG. 1 for each fluorochrome compound. […]

[2] = as above; remark: listed apart in the source
[3] = Fluorescence emission spectra with excitation at 980 nm (InGaAs NIR detector); conditions: for fluorescence emission in water: aqueous solution
Method: The emission of D2 was measured in acetonitrile (ACN), ethanol (EtOH), methanol (MeOH). Spectra were recorded on a Quantamaster 8075-21 fluorescence spectrophotometer equipped with a liquid nitrogen cooled cooled DSS-IGA020L/CUS InGaAs NIR detector with excitation at 980 nm and emission recorded from 1000 nm to 1200 nm. The emission spectra as illustrated in FIG. 2 are at equal absorbance at 980 nm for each solvent.
The fluorescence spectra for an equal absorbance ˜0.13 solution of dyes A, B, C in dichloroethane were determined by exciting at 980 nm (Horiba (Quantamaster 8075-21), nitrogen cooled InGaAs detector) and compared them with a commercially available dye, IR-26 (obtained from Exciton) D as reference. Dye B is more than 2 fold brighter than the reference IR-26 in DCE as illustrated in FIG. 3.
The fluorescence of dyes A, B and C were also determined in other solvents viz., methanol, ethanol, DMSO and water. […]

[4] = DCE, excitation 980 nm, equal absorbance ~0.13

Absorption max ([1]; in Methanol): 1022 nm | Absorption max ([1]; in Water): 829 nm | Absorption max ([2]; in Acetonitrile): 1019 nm | Absorption max ([2]; in Chloroform): 820 nm | Absorption max ([2]; in DMSO): 1069 nm and 1065 nm | Absorption max ([2]; in Dichloromethane): 810 nm | Absorption max ([2]; in Ethanol): 1032 nm
Structure (SMILES): CCn1/c(=C\C=C2/CCCC(/C=C/C3=[N+](CC)c4ccc(S(=O)(=O)O)c5cccc3c45)=C2Cl)c2cccc3c(S(=O)(=O)O)ccc1c32 [compound 26]

Abs λmax (absorbance max, UV-Vis λmax) ([1]; methanol): ~1030 nm | Abs λmax ([1]; methanol, unit not given): 1026
Structure (SMILES): O=S(=O)([O-])CCC[N+]1=C(/C=C/C2=C(Cl)C(=C/C=c3/c4cccc5cccc(c54)n3CCCS(=O)(=O)O)/C3CCC2C3)c2cccc3cccc1c23 (centres unmarked) [D72]

Abs λmax (absorbance max, UV-Vis λmax) ([1]; methanol): 980 nm and ~1010 nm
Structure (SMILES): O=C(O)Cn1\c(=C/C=C/C=C/C=C/C2=[N+](CC(=O)O)c3ccc(S(=O)(=O)[O-])c4cccc2c34)c2cccc3c(S(=O)(=O)O)ccc1c32 [D19]

Abs λmax (absorbance max, UV-Vis λmax) ([1]; methanol): 990 nm
Structure (SMILES): CCOC(=O)C1(C(=O)OCC)CC(/C=C/C2=[N+](CCCS(=O)(=O)O)c3ccc(S(=O)(=O)[O-])c4cccc2c34)=CC(=C/C=c2\c3cccc4c(S(=O)(=O)O)ccc(c43)n2CCCS(=O)(=O)O)/C1 [D75]

% Fluorescence Relative to C ([3]; DCE): 90.11% | Fluorescence Max [3, 4]: 1064 nm | % Fluorescence Relative to C ([3]; DMSO): 29.46% | Fluorescence Max ([3]; DMSO, excitation 980 nm): 1080 nm | % Fluorescence Relative to C ([3]; EtOH): 92.92% | Fluorescence Max ([3]; EtOH, excitation 980 nm): 1050 nm | % Fluorescence Relative to C ([3]; MeOH): 86.00% | Fluorescence Max ([3]; MeOH, excitation 980 nm): 1046 nm | fluorescence emission in water [3]: highly quenched
Structure (SMILES): CCn1/c(=C/C=C2\CCCC(/C=C/C3=[N+](CC)c4cccc5c(S(=O)(=O)[O-])ccc3c45)=C2Cl)c2ccc(S(=O)(=O)O)c3cccc1c32 [A]

Abs λmax (absorbance max, UV-Vis λmax) ([1]; methanol): ~990 nm
Structure (SMILES): O=C(O)CCCn1\c(=C/C=C/C=C/C=C/C2=[N+](CCCC(=O)O)c3ccc(S(=O)(=O)[O-])c4cccc2c34)c2cccc3c(S(=O)(=O)O)ccc1c32 [D17]

Abs λmax (absorbance max, UV-Vis λmax) ([1]; methanol): ~980 nm
Structure (SMILES): O=C(O)CCCn1\c(=C/C=C/C=C/C=C/C2=[N+](CCCS(=O)(=O)O)c3ccc(S(=O)(=O)[O-])c4cccc2c34)c2cccc3c(S(=O)(=O)O)ccc1c32 [D13]

Abs λmax (absorbance max, UV-Vis λmax) ([1]; methanol): ~1030 nm
Structure (SMILES): O=S(=O)([O-])CCC[N+]1=C(/C=C/C2=C(Cl)C(=C/C=c3/c4cccc5c(S(=O)(=O)O)ccc(c54)n3CCCS(=O)(=O)O)/C3CCC2C3)c2cccc3c(S(=O)(=O)O)ccc1c23 (centres unmarked) [D15]

Abs λmax (absorbance max, UV-Vis λmax) ([1]; methanol): ~1026 nm
Structure (SMILES): Cn1/c(=C\C=C2C(Cl)=C(/C=C/C3=[N+](C)c4ccc(S(=O)(=O)[O-])c5cccc3c45)C3CCC\2C3)c2cccc3c(S(=O)(=O)O)ccc1c32 (centres unmarked) [D81]

Abs λmax (absorbance max, UV-Vis λmax) ([1]; methanol): ~1020 nm
Structure (SMILES): Cn1/c(=C\C=C2/CCCC(/C=C/C3=[N+](C)c4ccc(S(=O)(=O)[O-])c5cccc3c45)=C2Cl)c2cccc3c(S(=O)(=O)O)ccc1c32 [D82]

Abs λmax (absorbance max, UV-Vis λmax) ([1]; methanol): ~1030 nm
Structure (SMILES): O=S(=O)(O)CCCn1/c(=C\C=C2/CCCC(/C=C/C3=[N+](CCCS(=O)(=O)O)c4ccc(S(=O)(=O)[O-])c5cccc3c45)=C2Cl)c2cccc3c(S(=O)(=O)O)ccc1c32 [D85]

Abs λmax (absorbance max, UV-Vis λmax) ([1]; methanol): ~1020 nm
Structure (SMILES): O=S(=O)([O-])CCC[N+]1=C(/C=C/C2=C(Cl)C(=C/C=c3/c4cccc5cccc(c54)n3CCCS(=O)(=O)O)/CCC2)c2cccc3cccc1c23 [D84]

Abs λmax (absorbance max, UV-Vis λmax) ([1]; methanol): ~980 nm
Structure (SMILES): C[N+]1=C(/C=C/C=C/C=C/C=c2/c3cccc4c(S(=O)(=O)O)ccc(c43)n2CCCC(=O)O)c2cccc3c(S(=O)(=O)[O-])ccc1c23 [D20]

% Fluorescence Relative to C ([3]; DCE): 58.89% | Fluorescence Max [3, 4]: 1118 nm
Structure (SMILES): ClC1=C(/C=C/c2cc(-c3ccccc3)[s+]c3ccccc23)CCC/C1=C\C=C1/C=C(c2ccccc2)Sc2ccccc21.[O-][Cl+3]([O-])([O-])[O-] [D (IR-26), IR-26, reference compound]

Abs λmax (absorbance max, UV-Vis λmax) ([1]; methanol): 970 nm and ~990 nm
Structure (SMILES): O=C(O)C[N+]1=C(/C=C/C=C/C=C/C=c2/c3cccc4c(S(=O)(=O)O)ccc(c43)n2CCCS(=O)(=O)O)c2cccc3c(S(=O)(=O)[O-])ccc1c23 [D18]

% Fluorescence Relative to C ([3]; DCE): 1.00% | Fluorescence Max [3, 4]: 1062 nm | % Fluorescence Relative to C ([3]; DMSO): 1.00% | Fluorescence Max ([3]; DMSO, excitation 980 nm): 1074 nm | % Fluorescence Relative to C ([3]; EtOH): 1.00% | Fluorescence Max ([3]; EtOH, excitation 980 nm): 1046 nm | % Fluorescence Relative to C ([3]; MeOH): 1.00% | Fluorescence Max ([3]; MeOH, excitation 980 nm): 1042 nm | fluorescence emission in water [3]: highly quenched
Structure (SMILES): O=S(=O)([O-])CCCC[N+]1=C(/C=C/C2=C(Cl)C(=C/C=c3\c4cccc5cccc(c54)n3CCCCS(=O)(=O)O)/CCC2)c2cccc3cccc1c23 [C]

% Fluorescence Relative to C ([3]; DCE): 130.82% | Fluorescence Max [3, 4]: 1080 nm | % Fluorescence Relative to C ([3]; DMSO): 80.53% | Fluorescence Max ([3]; DMSO, excitation 980 nm): 1092 nm | % Fluorescence Relative to C ([3]; EtOH): 76.31% | Fluorescence Max ([3]; EtOH, excitation 980 nm): 1062 nm | % Fluorescence Relative to C ([3]; MeOH): 94.80% | Fluorescence Max ([3]; MeOH, excitation 980 nm): 1056 nm | fluorescence emission in water [3]: highly quenched | brightness relative to the reference IR-26 ([3]; in DCE, excitation 980 nm, equal absorbance): more than 2 fold
Structure (SMILES): CCn1/c(=C/C=C2C(Cl)=C(/C=C/C3=[N+](CC)c4cccc5c(S(=O)(=O)[O-])ccc3c45)C3CCC/2C3)c2ccc(S(=O)(=O)O)c3cccc1c32 (centres unmarked) [B]

Abs λmax (absorbance max, UV-Vis λmax) ([1]; methanol): 980 nm
Structure (SMILES): O=C(O)CCCn1/c(=C/C=C/C=C/C=C/C2=[N+](CCCC(=O)O)c3ccc(S(=O)(=O)[O-])c4cccc2c34)c2cccc3c(S(=O)(=O)O)ccc1c32 [D74]

Abs λmax (absorbance max, UV-Vis λmax) ([1]; methanol): 851 nm
Structure (SMILES): CCn1\c(=C/C=C(/C=C/C2=[N+](CC)c3ccc(S(=O)(=O)O)c4cccc2c34)c2ccc(C(=O)O)cn2)c2cccc3c(S(=O)(=O)O)ccc1c32 [D71]

Abs λmax (absorbance max, UV-Vis λmax) ([1]; methanol): ~890 nm
Structure (SMILES): CC1(C)C(/C=C/C=C/C=C/C=c2/c3cccc4c(S(=O)(=O)O)ccc(c43)n2CCCC(=O)O)=[N+](CCCS(=O)(=O)[O-])c2ccc3c(S(=O)(=O)O)cc(S(=O)(=O)O)cc3c21 [D86]
